Results published in the NIST ThermoML archive (doi:10.1021/je034182z).
± gives the expanded uncertainty stated by the source.

Experiments:
[1] = refractive index (Na D-line) (dimensionless); conditions: 298.15 K; 101.33 kPa; Liquid; Standard Abbe refractometry
[2] = 298.15 K; 101.33 kPa; Liquid

Work on CCCCCCCC [octane] yielded a refractive index [1] of 1.3954 ± 0.0007 and a mass density [2] of 698.5 ± 0.8 kg/m3.
In the case of C1CCOC1 [tetrahydrofuran], the refractive index [1] is reported as 1.4047 ± 0.0007 and the mass density [2] is reported as 881.9 ± 1.3 kg/m3.
In the case of Cc1cccc(C)c1 [1,3-dimethylbenzene], the refractive index [1] is reported as 1.4947 ± 0.0007 and the mass density [2] is reported as 860.3 ± 0.5 kg/m3.
With CCCCCC [hexane] the refractive index [1] was 1.3747 ± 0.0007 and the mass density [2] was 655.1 ± 0.7 kg/m3.
In the case of CCCCCCC [heptane], the refractive index [1] is reported as 1.3854 ± 0.0007 and the mass density [2] is reported as 679.4 ± 0.8 kg/m3.
